Reference: US20110097741A1, “PARTIAL T1R2 NUCLEIC ACID SEQUENCE, RECEPTOR PROTEIN AND ITS USE IN SCREENING ASSAYS” (priority 2006, published 2011)

Legend:
[1] = test system: host cells expressing only the G16gust44 chimeric G-protein; assay: Fluo-4 calcium assay in negative control cells expressing G16gust44 only; assay type: cell-based, human
Method: As a negative control, mock transfected cells were exposed to the same concentration of ligand and the concentration of calcium traces not corresponding to a signal was determined.
As a result of said evalution, it was determined that when these cell lines are exposed to perillartine, many of cell clones respond to this stimulus with a significant increase in fluorescence which is greater than 10-times of the signal compared to the signal of the negative control (cells that express solely G16gust44 promiscuous G-protein but not T1R2-TMD).
The signals elicited by the test agents in cells that stably express G16gust44 and T1R2-TMD containing cells (formed as described in example 3) were compared to the signals obtained in cells that stably express G16gust44 and the T1R2/T1R3 heterodimer (formed as described in example 4), and as a negative control, cells that stably express G16gust44 were used.

T1R2-TMD = target: T1, T1R2-TMD (Homo sapiens, UniProt Q8TE23); assay: Fluo-4 calcium assay in HEK293 cells stably expressing G16gust44 and T1R2-TMD; assay type: cell-based
T1 construct: first 45 amino acids of rat somatostatin type 3 receptor plus linker) (N); expressed in transfected cells; host or cells: HEK-293-T-Rex based cell line stably expressing G16gust44
T1 sequence (Q8TE23 564-839): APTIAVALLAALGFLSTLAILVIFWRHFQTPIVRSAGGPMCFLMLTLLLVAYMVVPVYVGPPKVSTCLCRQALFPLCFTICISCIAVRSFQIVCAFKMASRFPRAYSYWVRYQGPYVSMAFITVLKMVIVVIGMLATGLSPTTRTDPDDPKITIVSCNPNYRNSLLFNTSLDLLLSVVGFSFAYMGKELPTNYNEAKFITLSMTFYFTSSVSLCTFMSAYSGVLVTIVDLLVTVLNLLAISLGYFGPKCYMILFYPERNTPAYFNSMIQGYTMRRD
Text: (§1) All examples use the human receptors.
Fluo-4 is a fluorescent indicator for intracellular calcium and allows to determine changes in the calcium concentration, in particular an increase in response to receptor activation occurring after ligand addition (for example perillartine or methyl chavicol).
HEK293 cells stably expressing G alpha 16 gustducin 44 and transfected with T1R2-TMD as described in example 3 were used as host cells.
Black, clear-bottom 96-well plates were used for all assays. They were seeded the day before with 8500 transfected cells per well and maintained at 37° C. overnight in a growth medium appropriate for the cells used. For HEK293 cells, Dulbecco's Modified Eagle medium containing high glucose, L-glutamine, pyroxidine hydrochloride, and supplemented with 10% fetal bovine serum was used for growth and maintenance of the HEK293 cells.
(§2) At the time of the assay, the growth medium was discarded and cells were incubated for 1 hour (at 37° C. in the dark) with 50 μl of a calcium assay solution consisting of 1.5 μM Fluo-4 AM (Molecular Probes™, Invitrogen, US) and 2.5 μM probenicid (Sigma-Aldrich) dissolved in a C1 buffer solution. C1 buffer solution contains 130 mM NaCl, 5 mM KCl, 10 mM Hepes, 2 mM CaCl2 and 10 mM glucose (pH 7.4).
After the initial 1 hour loading period, the plates were washed 5 times with 100 μl per well of C1 buffer using an automated plate washer (BioTek) and after washing, the plate was further incubated for 30 minutes at room temperature in the dark to allow for complete de-esterification of the Fluo-4-AM. […]
(§3) For assay reading, the plate was placed in a FLIPR (fluorescence imaging plate reader (FLIPR-Tetra, Molecular Devices)), and receptor activation was initiated following addition of 20 μl of a 10× concentrated ligand stock solution.
(§4) Fluorescence was continuously monitored for 15 seconds prior to ligand addition and for 105 seconds after ligand addition (45-105 sec may be sufficient). […]
(§5) Fluorescence Increase=Maximum Fluorescence−baseline fluorescence,
wherein the baseline fluorescence represents the mean fluorescence calculated for the first 10 to 15 seconds prior to ligand addition.
As a negative control, mock transfected cells were exposed to the same concentration of ligand and the concentration of calcium traces not corresponding to a signal was determined. […]
The data was calculated as described in example 1 and illustrated the net increase in fluorescence over baseline following stimulation of the cells with 50 μM perillartine. […]
HEK293T cells that stably express G16gust44 and T1R2-TMD (formed as described in example 3) are loaded with the calcium dye Fluo-4, and their response to perillartine is measured by using fluorescent calcium signals as described in example 1. […]

T1R2/T1R3 heterodimer = target: T2, T1R2/T1R3 heterodimer (Homo sapiens, UniProt Q8TE23); assay: Fluo-4 calcium assay in cells stably expressing G16gust44 and the T1R2/T1R3 heterodimer; assay type: cell-based; conditions: 4-parameter logistic fit
T2 construct: expressed in transfected cells; host or cells: HEK-293-T-Rex based cell line stably expressing G16gust44
T2 sequence (Q8TE23 20-839): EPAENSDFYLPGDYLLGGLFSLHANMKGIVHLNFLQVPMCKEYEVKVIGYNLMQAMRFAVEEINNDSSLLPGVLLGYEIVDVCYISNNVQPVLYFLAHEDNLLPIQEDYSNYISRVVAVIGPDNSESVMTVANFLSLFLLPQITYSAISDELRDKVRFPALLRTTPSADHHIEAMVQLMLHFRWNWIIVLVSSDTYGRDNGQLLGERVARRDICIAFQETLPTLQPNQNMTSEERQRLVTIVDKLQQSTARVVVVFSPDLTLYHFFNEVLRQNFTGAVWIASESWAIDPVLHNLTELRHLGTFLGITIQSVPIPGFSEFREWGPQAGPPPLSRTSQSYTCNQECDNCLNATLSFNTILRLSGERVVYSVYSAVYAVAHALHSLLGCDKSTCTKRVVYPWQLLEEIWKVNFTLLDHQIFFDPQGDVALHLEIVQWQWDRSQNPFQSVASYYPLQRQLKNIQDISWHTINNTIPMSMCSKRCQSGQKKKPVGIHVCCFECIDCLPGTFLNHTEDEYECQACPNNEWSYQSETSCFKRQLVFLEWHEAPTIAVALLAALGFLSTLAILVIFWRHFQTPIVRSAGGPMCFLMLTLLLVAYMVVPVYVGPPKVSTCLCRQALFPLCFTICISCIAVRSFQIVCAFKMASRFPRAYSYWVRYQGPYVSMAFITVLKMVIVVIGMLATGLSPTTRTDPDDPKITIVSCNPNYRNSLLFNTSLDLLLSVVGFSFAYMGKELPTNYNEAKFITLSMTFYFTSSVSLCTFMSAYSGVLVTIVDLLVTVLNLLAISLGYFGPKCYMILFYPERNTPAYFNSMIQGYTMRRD
T2 sequence (Q7RTX0 21-852 C757R partner): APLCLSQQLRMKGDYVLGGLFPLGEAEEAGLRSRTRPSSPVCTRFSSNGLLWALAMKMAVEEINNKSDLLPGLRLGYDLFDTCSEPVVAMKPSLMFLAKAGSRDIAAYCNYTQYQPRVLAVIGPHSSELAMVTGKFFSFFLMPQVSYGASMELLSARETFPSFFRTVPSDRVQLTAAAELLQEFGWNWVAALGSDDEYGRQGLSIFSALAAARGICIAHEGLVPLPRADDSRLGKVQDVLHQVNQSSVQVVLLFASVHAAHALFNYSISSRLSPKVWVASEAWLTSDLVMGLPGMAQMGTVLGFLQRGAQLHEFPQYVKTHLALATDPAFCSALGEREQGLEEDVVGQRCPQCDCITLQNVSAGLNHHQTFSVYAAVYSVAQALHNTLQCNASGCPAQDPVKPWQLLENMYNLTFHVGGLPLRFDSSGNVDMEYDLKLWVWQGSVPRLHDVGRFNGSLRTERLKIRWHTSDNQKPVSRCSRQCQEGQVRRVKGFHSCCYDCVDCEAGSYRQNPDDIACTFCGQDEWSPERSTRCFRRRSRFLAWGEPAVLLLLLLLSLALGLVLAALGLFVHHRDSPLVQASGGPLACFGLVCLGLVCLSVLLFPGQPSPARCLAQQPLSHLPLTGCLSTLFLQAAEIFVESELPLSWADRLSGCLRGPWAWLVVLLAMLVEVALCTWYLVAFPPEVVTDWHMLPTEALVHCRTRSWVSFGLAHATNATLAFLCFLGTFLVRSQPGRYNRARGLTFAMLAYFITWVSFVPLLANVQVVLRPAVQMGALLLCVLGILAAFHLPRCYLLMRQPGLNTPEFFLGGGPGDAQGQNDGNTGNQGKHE
Method: as §1
as §2, with “7.4). […]” for “7.4).”
as §3, §4, §5
wherein the baseline fluorescence represents the mean fluorescence calculated for the first 10 to 15 seconds prior to ligand addition. […]
Resistant colonies were expanded, and identified as containing the T1R2/T1R3 sweet heterodimer by their response to various sweetener compounds including sucrose, sucralose, aspartame and acesulfame K, which was determined via automated fluorimetric imaging on the FLIPR-Tetra instrumentation (Molecular Devices) using the methods described in example 1. […]

Row | SMILES | Negative control [RFU] ([1]; 100 micromolar, cells stably expressing G16gust44 only, average of two replicates) | calcium signaling upon stimulation (T1R2-TMD; 50 μM, cells stably expressing human T1R2-TMD, not in negative control) | AVERAGE [RFU] (net increase in fluorescence over baseline) (T1R2-TMD; T1R2-TMD/G16gust44 cells, 50 μM perillartine, no tetracycline induction) | EC50 (T1R2-TMD; T1R2-TMD, 4-parameter logistic fit, doses 0.1 to 200 micromolar) | increase in fluorescence, signal compared to the signal of the negative control (T1R2-TMD; many cell clones, 50 μM perillartine, absence of tetracycline induction, vs cells expressing solely G16gust44) | AVERAGE [RFU] (net increase in fluorescence over baseline) ([1]; G16gust44 ONLY (neg. control) cells, 50 μM perillartine) | EC50 (T1R2/T1R3 heterodimer)
1 | C=CCc1ccc(OC)cc1 [Methyl chavicol] | 732.195 RFU |  |  |  |  |  | 
2 | C=C(C)[C@@H]1CC=C(/C=N/O)CC1 [perillartine] |  | Significant increases | 973.06 RFU | 6.2 µM | greater than 10 times | 73.78 RFU | 3.5 µM
